Laboratory results as given in US20220132898A1, “COMPOSITION COMPRISING TRANSGLYCOSYLATED STEVIOSIDE AND TRANSGLYCOSYLATED REBAUDIOSIDE A” (CJ CHEILJEDANG CORPORATION, priority 2019, published 2022).
Entries after “also recorded” stand apart in the source; their conditions may differ.

What was measured:
[1] = type: physicochemical
Procedure: The solubility of Rebaudioside A (RA), Stevioside (STV), α-1,6 transglucosylated Rebaudioside A (RA-Glu) of Example 1-1, and transglucosylated Stevioside (STV-Glu) was measured. In particular, the transglucosylated Stevioside was obtained by reacting Stevioside and sucrose in the presence of a glucosyltransferase in the same manner as in Example 1-1.
6 g of each of Rebaudioside A, Stevioside, transglucosylated Rebaudioside A, and transglucosylated Stevioside was mixed with 10 ml and then dissolved by sonication at 50° C. for 60 minutes. The resultant was incubated for 1 week in a water bath at 5° C., 15° C., 25° C., 35° C., 45° C., or 55° C. Thereafter, the resulting solution was centrifuged at 12000 rpm for 10 minutes, and 1 ml of the supernatant was collected and dried in an oven at 105° C. to measure the solubility.

[2] = Evaluation of actual sweetness and quality of sweetness by panels; type: in vivo; details: sample dissolved in water, evaluated by panels
Description: Two samples prepared in Example 1-1 above were independently dissolved in water and provided to panels for evaluation of actual sweetness and the quality of sweetness.

Row | Substance | Solubility (%) [1] | solubility as compared to Stevioside and Rebaudioside A, respectively [1] | Actual Sweetness [2] | Quality of Sweetness [2]
1 | transglucosylated Stevioside [STV-Glu] | ≥ 40↑ % | remarkably increased solubility |  | 
2 | α-1,4 transglucosylated Rebaudioside A |  |  | 19 | Bitter taste is stronger than sweet taste, has greasy
3 | α-1,6 transglucosylated Rebaudioside A [RA-Glu] | ≥ 40↑ % | remarkably increased solubility |  | better quality of sweetness; also recorded: Gives sweet taste in the beginning, has a bit of bitter
